EC50 and activation data for 20 molecules are collected here from patent publication US20170354639A1, “DITERPENOID DERIVATIVES AND METHODS OF USE THEREOF” (Biogen MA Inc., priority 2014, published 2017).

Sequence of Nrf2-Keap1 (Q14145 whole entry): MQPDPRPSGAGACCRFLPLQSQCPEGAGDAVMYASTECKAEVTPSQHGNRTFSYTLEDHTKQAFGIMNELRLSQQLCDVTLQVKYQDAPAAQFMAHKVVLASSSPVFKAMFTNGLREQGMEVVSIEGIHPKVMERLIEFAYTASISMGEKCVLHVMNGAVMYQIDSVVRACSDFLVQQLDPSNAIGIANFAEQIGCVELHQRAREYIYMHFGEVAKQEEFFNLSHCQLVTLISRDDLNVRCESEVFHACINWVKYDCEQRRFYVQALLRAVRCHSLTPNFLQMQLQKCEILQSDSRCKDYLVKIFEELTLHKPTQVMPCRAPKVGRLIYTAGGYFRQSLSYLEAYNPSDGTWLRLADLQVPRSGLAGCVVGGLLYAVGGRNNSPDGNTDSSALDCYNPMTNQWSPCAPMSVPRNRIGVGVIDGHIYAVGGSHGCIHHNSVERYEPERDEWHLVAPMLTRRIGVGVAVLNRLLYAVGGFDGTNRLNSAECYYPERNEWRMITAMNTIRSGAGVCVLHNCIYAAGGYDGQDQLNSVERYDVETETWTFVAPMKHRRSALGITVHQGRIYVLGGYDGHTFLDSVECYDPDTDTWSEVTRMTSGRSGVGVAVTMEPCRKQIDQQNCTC

The first assay concerns the target Nrf2-Keap1 (Homo sapiens, UniProt Q14145). Kind of assay: DiscoveRx PathHunter Nrf2-Keap1 nuclear translocation functional assay (agonist format). It counts as cell-based. The note with it: 10 concentrations, 3-fold serial dilutions, 30 μM top concentration, in duplicate; agonist mode; normalized to CDDO methyl ester and vehicle. On the procedure: DiscoveRx PathHunter® Nrf2-Keap1 Functional Assay
DiscoveRx's Nrf2-Keapl translocation assay was used to profile compounds. Primary Screening was performed in duplicate at a single concentration of 10 μM and EC50 determinations were performed in duplicate at 10 concentrations with 3-fold serial dilutions at a 30 μM top concentration or an otherwise specified top concentration.
The PathHunter® Nuclear Translocation assay detects translocation of a target protein to, or from, the nucleus. In this system, Prolink™ (PK), a small enzyme fragment, is fused to the protein of interest and Enzyme Acceptor (EA) is localized in the nucleus. Activation of the signaling pathway induces the target protein to either transit into the nucleus, thus forcing complementation of the PK and EA fragments, or out of the nucleus, hindering complementation of the fragments.
Cell handling: PathHunter Pathway cell lines were expanded from freezer stocks according to standard procedures. 5000 cells were seeded in Cell Plating Reagent 0 (containing 1% FBS) to a total volume of 20 μL into white walled, 384-well microplates and incubated for the overnight prior to testing.
Agonist format: For Agonist determination, cells were incubated with sample to induce response. Dilution of sample stocks was performed to generate 100× sample in DMSO. Intermediate dilution of sample stocks was performed to generate 5× sample in assay buffer (Cell Plating Reagent 0 containing 1% FBS). 5 μL of 5× sample was added to cells and incubated at room temperature for 6 hours. Vehicle concentration was 1%.
Signal detection: Assay signal was generated through a single addition of 25 μL (100% v/v) of PathHunter Flash Detection reagent, followed by a one hour incubation at room temperature. Microplates were read following signal generation with a PerkinElmer Envision™ instrument for chemiluminescent signal detection.
Data analysis: Compound activity was analyzed using CBIS data analysis suite (ChemInnovation, CA). For agonist mode assays, percentage activity was calculated using the following formula: % Activity=100%×(mean RLU of test sample−mean RLU of vehicle control)/(mean MAX RLU control ligand−mean RLU of vehicle control). For EC50 determination, a control agonist dose response curve was generated in the Keap 1-Nrf2 biosensor assay, data was normalized to the maximal and minimal response observed in the presence of the control ligand and vehicle respectively. CDDO methyl ester was used as a control compound. Compounds were tested in the agonist mode of the assay and data was normalized to the maximal and minimal response observed in the presence of control ligand and vehicle.
The molecule `C=C1CC[C@H]2[C@@](C)(CC[C@@]3(C)OS(=O)OC[C@@]23C)[C@@H]1C/C=C1/C(=O)OCC1NC=O` (stereo partly drawn) [Example 22, N-((E)-5-oxo-4-(2-((4aR,6aS,7R,10aS,10bR)-4a,6a,10b-trimethyl-8-methylene-3-oxidodecahydro-1H-naphtho[2,1-d][1,3,2]dioxathiin-7-yl)ethylidene)tetrahydrofuran-3-yl)formamide] displayed an EC50 of 0.5 to 2 µM.
Same read-out and setting: the same measure for `CC(=O)N[C@@H]1COC(=O)/C1=C/CC[C@H]1C2(CC[C@H]3C(C)(C)CCC[C@@]31C)CC2` [Example 35, N-((S,E)-5-oxo-4-(3-((1′S,4a′S,8a′S)-5′,5′,8a′-trimethyloctahydro-1′H-spiro[cyclopropane-1,2′-naphthalen]-1′-yl)propylidene)tetrahydrofuran-3-yl)acetamide]: above 2 µM.
Same read-out and setting: under `CC(=O)N[C@@H]1COC(=O)/C1=C\CC[C@H]1C2(CC[C@H]3C(C)(C)CCC[C@@]31C)CC2` [Example 36, N—((S,Z)-5-oxo-4-(3-((1′S,4a′S,8a′S)-5′,5′,8a′-trimethyloctahydro-1′H-spiro[cyclopropane-1,2′-naphthalen]-1′-yl)propylidene)tetrahydrofuran-3-yl)acetamide] stands above 2 µM.
The same measure, in the same setting: the same measure for `C=C1CC[C@@H]2[C@@H](C)[C@](O)(C(F)(F)F)CC[C@@]2(C)[C@@H]1C/C=C1/C(=O)OC[C@H]1O` [Example 42A, (S,E)-4-hydroxy-3-(2-((1R,4aR,5R,6S,8aR)-6-hydroxy-5,8a-dimethyl-2-methylene-6-(trifluoromethyl)decahydronaphthalen-1-yl)ethylidene)dihydrofuran-2(3H)one]: below 0.5 µM; for `C=C1CC[C@@H]2[C@@H](C)[C@@](O)(C(F)(F)F)CC[C@@]2(C)[C@@H]1C/C=C1/C(=O)OC[C@H]1O` [Example 42B, (S,E)-4-hydroxy-3-(2-((1R,4aR,5R,6R,8aR)-6-hydroxy-5,8a-dimethyl-2-methylene-6-(trifluoromethyl)decahydronaphthalen-1-yl)ethylidene)dihydrofuran-2(3H)-one]: below 0.5 µM.
Molecule `CC1=CC[C@@H]2[C@@H](C)[C@](O)(C(F)(F)F)CC[C@@]2(C)[C@@H]1C/C=C1/C(=O)OC[C@H]1O` [Example 47, (S,E)-4-hydroxy-3-(2-((1R,4aR,5R,6S,8aR)-6-hydroxy-2,5,8a-trimethyl-6-(trifluoromethyl)-1,4,4a,5,6,7,8,8a-octahydronaphthalen-1-yl)ethylidene)dihydrofuran-2(3H)-one] showed an EC50 above 2 µM.
As for `CC1=CC[C@@H]2[C@@H](C)[C@@](O)(C(F)(F)F)CC[C@@]2(C)[C@@H]1C/C=C1/C(=O)OC[C@H]1O` [Example 48, (S,E)-4-hydroxy-3-(2-((1R,4aR,5R,6R,8aR)-6-hydroxy-2,5,8a-trimethyl-6-(trifluoromethyl)-1,4,4a,5,6,7,8,8a-octahydronaphthalen-1-yl)ethylidene)dihydrofuran-2(3H)-one], the EC50 was above 2 µM.

The same assay, now with this note: 6 h, single concentration of 10 μM, in duplicate; agonist mode; normalized to control ligand (CDDO methyl ester) and vehicle.
The molecule `C=C1CC[C@H]2[C@@](C)(CC[C@@]3(C)OS(=O)OC[C@@]23C)[C@@H]1C/C=C1/C(=O)OCC1NC=O` (stereo partly drawn) [Example 22, N-((E)-5-oxo-4-(2-((4aR,6aS,7R,10aS,10bR)-4a,6a,10b-trimethyl-8-methylene-3-oxidodecahydro-1H-naphtho[2,1-d][1,3,2]dioxathiin-7-yl)ethylidene)tetrahydrofuran-3-yl)formamide] displayed an activation at 10 µM of 51 to 100%.
The same measure, in the same setting: under `CC1(C)CCC[C@@]2(C)[C@H]1CCC1(CC1)[C@@H]2C/C=C1\C(=O)OCC1O` (stereo partly drawn) [Example 23, (Z)-4-hydroxy-3-(2-((1′S,4a′S,8a′S)-5′,5′,8a′-trimethyloctahydro-1′H-spiro[cyclopropane-1,2′-naphthalen]-1′-yl)ethylidene)dihydrofuran-2(3H)-one] stands 51 to 100%; under `CC1(C)CCC[C@@]2(C)[C@H]1CCC1(CC1)[C@@H]2C/C=C1/C(=O)OC[C@H]1NC=O` [Example 24, N—((S,E)-5-oxo-4-(2-((1′S,4a′S,8a′S)-5′,5′,8a′-trimethyloctahydro-1′H-spiro[cyclopropane-1,2′-naphthalen]-1′-yl)ethylidene)tetrahydrofuran-3-yl)formamide], 51 to 100%.
Still for that read-out and setting: the same measure for `CC1(C)CCC[C@@]2(C)[C@H]1CCC1(CC1)[C@@H]2C/C=C1\C(=O)OC[C@H]1NC=O` [Example 25, N—((S,Z)-5-oxo-4-(2-((1′S,4a′S,8a′S)-5′,5′,8a′-trimethyloctahydro-1′H-spiro[cyclopropane-1,2′-naphthalen]-1′-yl)ethylidene)tetrahydrofuran-3-yl)formamide]: 51 to 100%; for `CC(=O)N[C@@H]1COC(=O)/C1=C/C[C@H]1C2(CC[C@H]3C(C)(C)CCC[C@@]31C)CC2` [Example 26, N—((S,E)-5-oxo-4-(2-((1′S,4a′S,8a′S)-5′,5′,8a′-trimethyloctahydro-1′H-spiro[cyclopropane-1,2′-naphthalen]-1′-yl)ethylidene)tetrahydrofuran-3-yl)acetamide]: 30 to 50%; for `CC(=O)N[C@@H]1COC(=O)/C1=C\C[C@H]1C2(CC[C@H]3C(C)(C)CCC[C@@]31C)CC2` [Example 27, N—((S,Z)-5-oxo-4-(2-((1′S,4a′S,8a′S)-5′,5′,8a′-trimethyloctahydro-1′H-spiro[cyclopropane-1,2′-naphthalen]-1′-yl)ethylidene)tetrahydrofuran-3-yl)acetamide]: 30 to 50%.
Consider `C=C1CC[C@@H]2[C@]3(C)COS(=O)O[C@@H]3CC[C@@]2(C)[C@@H]1C/C=C1\C(=O)OC[C@H]1NC=O` (stereo partly drawn) [Example 28, N-((3S,Z)-4-(2-((4aR,6aS,7R,10aS,10bR)-6a,10b-dimethyl-8-methylene-3-oxidodecahydro-1H-naphtho[2,1-d][1,3,2]dioxathiin-7-yl)ethylidene)-5-oxotetrahydrofuran-3-yl)formamide], for which the activation at 10 µM lay within 51 to 100%.
`C=C1CC[C@@H]2[C@]3(C)COS(=O)O[C@@H]3CC[C@@]2(C)[C@@H]1C/C=C1\C(=O)OC[C@@H]1NC=O` (stereo partly drawn) [Example 29, N-((3R,Z)-4-(2-((4aR,6aS,7R,10aS,10bR)-6a,10b-dimethyl-8-methylene-3-oxidodecahydro-1H-naphtho [2,1-d][1,3,2]dioxathiin-7-yl)ethylidene)-5-oxotetrahydrofuran-3-yl)formamide] came in with an activation at 10 µM of 51 to 100%.
On the same count and under the same terms, the same measure for `CC1(C)CCC[C@@]2(C)[C@H]1CCC1(CC1)[C@@H]2CC/C=C1/C(=O)OCC1O` (stereo partly drawn) [Example 32, (E)-4-hydroxy-3-(3-((1′S,4a′S,8a′S)-5′,5′,8a′-trimethyloctahydro-1′H-spiro[cyclopropane-1,2′-naphthalen]-1′-yl)propylidene)dihydrofuran-2(3H)-one]: 30 to 50%; for `CC1(C)CCC[C@@]2(C)[C@H]1CCC1(CC1)[C@@H]2CC/C=C1/C(=O)OC[C@H]1NC=O` [Example 33, N-((S,E)-5-oxo-4-(3-((1′S,4a′S,8a′S)-5′,5′,8a′-trimethyloctahydro-1′H-spiro[cyclopropane-1,2′-naphthalen]-1′-yl)propylidene)tetrahydrofuran-3-yl)formamide]: 30 to 50%; for `CC1(C)CCC[C@@]2(C)[C@H]1CCC1(CC1)[C@@H]2CC/C=C1\C(=O)OC[C@H]1NC=O` [Example 34, N-((S,Z)-5-oxo-4-(3-((l′S,4a′S,8a′S)-5′,5′,8a′-trimethyloctahydro-1′H-spiro[cyclopropane-1,2′-naphthalen]-1′-yl)propylidene)tetrahydrofuran-3-yl)formamide]: 30 to 50%.
Still for that read-out and setting: the same measure for `CC(=O)N[C@@H]1COC(=O)/C1=C/CC[C@H]1C2(CC[C@H]3C(C)(C)CCC[C@@]31C)CC2` [Example 35, N-((S,E)-5-oxo-4-(3-((1′S,4a′S,8a′S)-5′,5′,8a′-trimethyloctahydro-1′H-spiro[cyclopropane-1,2′-naphthalen]-1′-yl)propylidene)tetrahydrofuran-3-yl)acetamide]: 51 to 100%; for `CC(=O)N[C@@H]1COC(=O)/C1=C\CC[C@H]1C2(CC[C@H]3C(C)(C)CCC[C@@]31C)CC2` [Example 36, N—((S,Z)-5-oxo-4-(3-((1′S,4a′S,8a′S)-5′,5′,8a′-trimethyloctahydro-1′H-spiro[cyclopropane-1,2′-naphthalen]-1′-yl)propylidene)tetrahydrofuran-3-yl)acetamide]: 51 to 100%.
The same measure, in the same setting: the same measure for `CC1(C)CCC[C@@]2(C)[C@H]1CCC1(CC1)[C@@H]2CC/C=C1/C(=O)OC[C@H]1NS(C)(=O)=O` [Example 37, N—((S,E)-5-oxo-4-(3-((1′S,4a′S,8a′S)-5′,5′,8a′-trimethyloctahydro-1′H-spiro[cyclopropane-1,2′-naphthalen]-1′-yl)propylidene)tetrahydrofuran-3-yl)methanesulfonamide]: 30 to 50%.
The molecule `CC1(C)CCC[C@@]2(C)[C@H]1CCC1(CC1)[C@@H]2CC/C=C1\C(=O)OC[C@H]1NS(C)(=O)=O` [Example 38, N—((S,Z)-5-oxo-4-(3-((1′S,4a′S,8a′S)-5′,5′,8a′-trimethyloctahydro-1′H-spiro[cyclopropane-1,2′-naphthalen]-1′-yl)propylidene)tetrahydrofuran-3-yl)methanesulfonamide] showed an activation at 10 µM of 30 to 50%.

Still in this assay, the particulars now being: single concentration of 10 μM, in duplicate; agonist mode, 6 hours; normalized to control ligand (CDDO methyl ester) and vehicle.
`C=C1CC[C@@H]2[C@]3(C)COS(=O)O[C@@H]3CC[C@@]2(C)[C@@H]1C/C=C1/C(=O)OCC1NC(=O)COC` (stereo partly drawn) [Example 40A, N-((E)-4-(2-((4aR,6aS,7R,10aS,10bR)-6a,10b-dimethyl-8-methylene-3-oxidodecahydro-1H-naphtho[2,1-d][1,3,2]dioxathiin-7-yl)ethylidene)-5-oxotetrahydrofuran-3-yl)-2-methoxyacetamide] returned an activation at 10 µM of 51 to 100%.
